Data taken from patent US20240262815A1, “HETEROARYL DERIVATIVE, METHOD FOR PREPARING SAME, AND PHARMACEUTICAL COMPOSITION COMPRISING SAME AS ACTIVE INGREDIENT” (VORONOI INC., priority 2021, published 2024).

These compounds were tested on SK-BR-3 cancer cells (assay: Inhibitory activity against proliferation of SK-BR-3 cancer cells (CellTiter-Glo)). Details: Homo sapiens, SK-BR-3, 120 h, ErbB2-overexpressing SK-BR-3 cells, 120 hours after treatment.
Format: cell-based
Method in brief: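 Cells seeded 48 h before dosing (SK-BR-3 in McCOY'S 5A + 10% FBS; BT-474 in RPMI-1640 + 20% FBS), then exposed 120 h to 12 concentrations, 0.2 nM-5 μM final. Viability by CellTiter-Glo luminescence; GI50 from growth rate vs control, triplicate runs.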

| GI50 [nM] | Structure (SMILES) |
| --- | --- |
| 50 to 500 | C=CC(=O)Nc1cc(Nc2cc(N3OCCC3c3cccc(C#Cc4ccccc4)c3)ncn2)c(OC)cc1N1CCC(N2CCN(C3CC3)CC2)CC1 (stereo not drawn) [Example compound 138, N-(2-(4-(4-cyclopropylpiperazin-1-yl)piperidin-1-yl)-4-methoxy-5-((6-(3-(3-(phenylethynyl)phenyl)isoxazolidin-2-yl)pyrimidin-4-yl)amino)phenyl)acrylamide] |
| 50 to 500 | C=CC(=O)Nc1cc(Nc2cc(N3OCCC3c3cccc(C#CC(C)(C)C)c3)ncn2)c(OC)cc1N1CCN(C)CC1 (stereo not drawn) [Example compound 139, N-(5-((6-(3-(3-(3,3-dimethylbut-1-yn-1-yl)phenyl)isoxazolidin-2-yl)pyrimidin-4-yl)amino)-4-methoxy-2-(4-methylpiperazin-1-yl)phenyl)acrylamide] |
| 50 to 500 | C=CC(=O)Nc1cc(Nc2cc(N3OCCC3c3cccc(C#CC(C)(C)C)c3)ncn2)c(OC)cc1N1CCC(N2CCN(C3CC3)CC2)CC1 (stereo not drawn) [Example compound 140, N-(2-(4-(4-cyclopropylpiperazin-1-yl)piperidin-1-yl)-5-((6-(3-(3-(3,3-dimethylbut-1-yn-1-yl)phenyl)isoxazolidin-2-yl)pyrimidin-4-yl)amino)-4-methoxyphenyl)acrylamide] |
| < 50 | C=CC(=O)Nc1cc(Nc2cc(N3OCC[C@@H]3c3ccc(F)c(Oc4cccc(F)c4)c3)ncn2)c(OC)cc1N1CCC(N2CCN(C3CC3)CC2)CC1 [Example compound 152, (R)-N-(2-(4-(4-cyclopropylpiperazin-1-yl)piperidin-1-yl)-5-((6-(3-(4-fluoro-3-(3-fluorophenoxy)phenyl)isoxazolidin-2-yl)pyrimidin-4-yl)amino)-4-methoxyphenyl)acrylamide] |
| 50 to 500 | C=CC(=O)Nc1cc(Nc2cc(N3OCC[C@@H]3c3ccc(F)c(Oc4cccc(F)c4)c3)ncn2)c(OC)cc1N1CCN(C)CC1 [Example compound 153, (R)-N-(5-((6-(3-(4-fluoro-3-(3-fluorophenoxy)phenyl)isoxazolidin-2-yl)pyrimidin-4-yl)amino)-4-methoxy-2-(4-methylpiperazin-1-yl)phenyl)acrylamide] |

What follows are compounds tested on BT-474 cancer cells (assay: Inhibitory activity against proliferation of BT-474 cancer cells (CellTiter-Glo)). Details: Homo sapiens, BT-474 ErbB2-overexpressing cancer cells, 120 hours after treatment.
Format: cell-based
Experimental: To evaluate the inhibitory activity of a compound according to the present invention against the proliferation of ErbB2-overexpressing cancer cells, the following experiment were performed.
10% FBS-added McCOY'S 5A was used for SK-BR-3 cancer cells. 20% FBS-added RPMI-1640 was used for BT-474 cancer cells. Transduced Ba/F3 cells were cultured in a RPMI-1640 medium to which 1 μg/ml puromycin (Invitrogen) was added.
48 hours before compound treatment, each type of the SK-BR-3 and BT-474 cells were seeded at 5,000 cells/well in a white clear bottom 96 well plate (Corning). The compound was diluted in dimethyl sulfoxide (SK-BR-3: 3-fold dilution, a total of 12 concentrations, BT-474: […], a total of 12 concentrations) and injected at 1 μl to have the final concentration of 0.2 nM to 5 μM. As for measurement of live cells, 120 hours after treatment with the compound, a CellTiter-Glo luminescent cell-viability reagent (Promega) was used to store the cells at room temperature for 10 minutes, followed by measurement of luminescence using a reader (SynergyNeo, Biotek). Each test was repeated three times.
The result values were calculated as a cell growth rate (%) compared to the control group. A graph was plotted using the GraphPad Prism version 8.3.0 program, and GI50 values were calculated.

| GI50 [nM] | Structure (SMILES) |
| --- | --- |
| < 50 | C=CC(=O)Nc1cc(Nc2cc(N3OCC[C@@H]3c3cc(F)cc(-c4cccc(F)c4)c3)ncn2)c(OC)cc1N1CCC(N2CCN(C3CC3)CC2)CC1 [Example 248, (R)-N-(2-(4-(4-cyclopropylpiper-azin-1-yl)piperidin-1-yl)-5-((6-(3-(3′,5-difluoro-[1,1′-biphenyl]-3-yl)-isoxazolidin-2-yl)-pyrimidin-4-yl)-amino)-4-methoxy-phenyl)acrylamide] |
| < 50 | C=CC(=O)Nc1cc(Nc2cc(N3OCC[C@@H]3c3cccc(-c4cccc(C(N)=O)c4)c3)ncn2)c(OC)cc1N1CCN(C)CC1 [Example 325, (R)-3′-(2-(6-((5-acrylamido-2-methoxy-4-(4-methylpiperazin-1-yl)phenyl)-amino)pyrimidin-4-yl)isoxazolidin-3-yl)-[1,1′-biphen-yl]-3-carboxamide] |
| < 50 | C=CC(=O)Nc1cc(Nc2cc(N3OCC[C@@H]3c3cccc(-c4cccc(F)c4F)c3)ncn2)c(OC)cc1N1CCN(C)[C@@H](C)C1 [Example 326, N-(5-((6-((R)-3-(2′,3′-difluoro-[1,1′-biphenyl]-3-yl)isoxazolidin-2-yl)pyrimidin-4-yl)amino)-2-((S)-3,4-dimethylpiper-azin-1-yl)-4-meth-oxyphenyl)acryl-amide] |
| < 50 | C=CC(=O)Nc1cc(Nc2cc(N3OCC[C@@H]3c3cccc(-c4ccc(F)cc4F)c3)ncn2)c(OC)cc1N1CCN(C)[C@@H](C)C1 [Example 327, N-(5-((6-((R)-3-(2′,4′-difluoro-[1,1′-biphenyl]-3-yl)-isoxazolidin-2-yl)-pyrimidin-4-yl)-amino)-2-((S)-3,4-dimethylpiperazin-1-yl)-4-methoxy-phenyl)acrylamide] |
| 50 to 500 | C=CC(=O)Nc1cc(Nc2cc(N3OCC[C@@H]3c3cccc(-c4cccc(F)c4)c3)ncn2)c(OC)cc1N1C[C@@H](C)N(C(=O)OC(C)(C)C)[C@@H](C)C1 [Example 328, tert-butyl (2S,6R)-4-(2-acrylamido-4-((6-((R)-3-(3′-fluoro-[1,1′-biphen-yl]-3-yl)isoxazol-idin-2-yl)pyrim-idin-4-yl)amino)-5-methoxyphenyl)-2,6-dimethylpiper-azine-1-carboxylate] |
| < 50 | C=CC(=O)Nc1cc(Nc2cc(N3OCC[C@@H]3c3cccc(-c4cccc(F)c4)c3)ncn2)c(OC)cc1N1C[C@@H](C)N[C@@H](C)C1 [Example 329, N-(2-((3S,5R)-3,5-dimethyl-piperazin-1-yl)-5-((6-((R)-3-(3′-fluoro-[1,1′-bi-phenyl]-3-yl)-isoxazolidin-2-yl)pyrimidin-4-yl)amino)-4-meth-oxyphenyl)acryl-amide] |
| < 50 | C=CC(=O)Nc1cc(Nc2cc(N3OCC[C@@H]3c3cccc(-c4cccc(C#N)c4)c3)ncn2)c(OC)cc1N1CCN(C)CC1 [Example 330, (R)-N-(5-((6-(3-(3′-cyano-[1,1′-biphenyl]-3-yl)-isoxazolidin-2-yl)-pyrimidin-4-yl)-amino)-4-methoxy-2-(4-methylpiper-azin-1-yl)phenyl)-acrylamide] |
| < 50 | C=CC(=O)Nc1cc(Nc2cc(N3OCC[C@@H]3c3cccc(-c4ccc(OC)nc4)c3)ncn2)c(OC)cc1N1CCN(C)[C@@H](C)C1 [Example 331, N-(2-((S)-3,4-dimethylpiperazin-1-yl)-4-methoxy-5-((6-((R)-3-(3-(6-methoxypyridin-3-yl)phenyl)isoxazol-idin-2-yl)pyrim-idin-4-yl)amino)-phenyl)acrylamide] |
| 50 to 500 | C=CC(=O)Nc1cc(Nc2cc(N3OCC[C@@H]3c3cccc(-c4ccc(C(F)(F)F)cc4)c3)ncn2)c(OC)cc1N1CCN(C)CC1 [Example 332, (R)-N-(4-methoxy-2-(4-methylpiper-azin-1-yl)-5-((6-(3-(4′-(trifluoro-methyl)-[1,1′-bi-phenyl]-3-yl)-isoxazolidin-2-yl)-pyrimidin-4-yl)-amino)phenyl)-acrylamide] |
| < 50 | C=CC(=O)Nc1cc(Nc2cc(N3OCC[C@@H]3c3cccc(-c4ccc(C#N)cc4)c3)ncn2)c(OC)cc1N1CCN(C)CC1 [Example 333, (R)-N-(5-((6-(3-(4′-cyano-[1,1′-biphenyl]-3-yl)-isoxazolidin-2-yl)-pyrimidin-4-yl)-amino)-4-methoxy-2-(4-methylpiper-azin-1-yl)phenyl)-acrylamide] |
| < 50 | C=CC(=O)Nc1cc(Nc2cc(N3OCC[C@@H]3c3cccc(C(=O)Nc4ccccc4)c3)ncn2)c(OC)cc1N1CCN(C)CC1 [Example 334, (R)-3-(2-(6-((5-acrylamido-2-meth-oxy-4-(4-methyl-piperazin-1-yl)-phenyl)amino)pyr-imidin-4-yl)isox-azolidin-3-yl)-N-phenylbenzamide] |
| < 50 | COc1cc(F)c(NC(=O)/C=C/CN(C)C)cc1Nc1cc(N2OCC[C@@H]2c2cccc(-c3cccc(F)c3)c2)ncn1 [Example 335, (R,E)-4-(dimethyl-amino)-N-(2-fluoro-5-((6-(3-(3′-fluoro-[1,1′-biphen-yl]-3-yl)isoxazol-idin-2-yl)pyrim-idin-4-yl)amino)-4-methoxyphen-yl)but-2-enamide] |
| < 50 | C=CC(=O)Nc1cc(Nc2cc(N3OCC[C@@H]3c3cccc(-c4cccc(F)c4)c3)ncn2)c(OC)cc1N1CCN(CCO)CC1 [Example 336, (R)-N-(5-((6-(3-(3′-fluoro-[1,1′-biphenyl]-3-yl)-isoxazolidin-2-yl)-pyrimidin-4-yl)-amino)-2-(4-(2-hydroxyethyl)-piperazin-1-yl)-4-methoxyphenyl)-acrylamide] |
| < 50 | C=CC(=O)Nc1cc(Nc2cc(N3OCC[C@@H]3c3cccc(-c4cccc(C)c4C)c3)ncn2)c(OC)cc1N1CCN(C)CC1 [Example 337, (R)-N-(5-((6-(3-(2′,3′-dimethyl-[1,1′-biphenyl]-3-yl)isoxazolidin-2-yl)pyrimidin-4-yl)-amino)-4-methoxy-2-(4-methylpiper-azin-1-yl)phenyl)-acrylamide] |
| < 50 | C=CC(=O)Nc1cc(Nc2cc(N3OCC[C@@H]3c3cccc(-c4cccc(C(=O)OC)c4)c3)ncn2)c(OC)cc1N1CCN(C)CC1 [Example 338, methyl (R)-3′-(2-(6-((5-acrylamido-2-methoxy-4-(4-methylpiperazin-1-yl)phenyl)-amino)pyrimidin-4-yl)isoxazolidin-3-yl)-[1,1′-biphen-yl]-3-carboxylate] |
| < 50 | C=CC(=O)Nc1cc(Nc2cc(N3OCC[C@@H]3c3cccc(-c4cccc(F)c4)c3)ncn2)c(OC)cc1N1CCC2(CC1)COC2 [Example 339, (R)-N-(5-((6-(3-(3′-fluoro-[1,1′-biphenyl]-3-yl)-isoxazolidin-2-yl)-pyrimidin-4-yl)-amino)-4-methoxy-2-(2-oxa-7-azas-piro[3.5]nonan-7-yl)phenyl)acryl-amide] |
